These results are taken from article PMC5571344, “Identification and Mode of Action of a Plant Natural Product Targeting Human Fungal Pathogens” (Antimicrobial Agents and Chemotherapy, 2017).

Values after ≈ are worked out from the molar mass of the structure shown. Like-named read-outs stand apart in the source and are kept apart here.

Assay in all cases: microbe, parasite or virus in culture
Assay [1] concerns C. albicans. On the set-up: species or system Candida strains; broth microdilution antifungal susceptibility according to EUCAST protocols, growth inhibition MIC. As to conditions: Candida albicans, EUCAST, read-out: MIC Fluconazole. How it is done: (§1) The results of [compound left out] susceptibility assays with several clinically relevant Candida species are shown on Fig. 2B. All strains, except C. glabrata, were highly susceptible to [compound left out]. […] [compound left out] […] The yeast and bacterial strains used in the study are listed in Table S1 in the supplemental material. NPs were dissolved in DMSO to 10 μg/ml. [compound left out] [compound left out] was purchased from Phytolab (GmbH), dissolved in DMSO at a 2 mM concentration, heated for 20 min at 50°C for solubilization, and stored at −20°C until usage.

Assay [2] deals with C. tropicalis. The arrangement: species or system Candida strains; broth microdilution antifungal susceptibility according to EUCAST protocols, growth inhibition MIC. The settings on record: Candida tropicalis, EUCAST, read-out: MIC Fluconazole. The procedure: as §1
The subject of assay [3] is Pichia kudriavzevii C. krusei. On the set-up: species or system Candida strains; broth microdilution antifungal susceptibility according to EUCAST protocols, growth inhibition MIC. The settings on record: DSY2293, EUCAST, read-out: MIC Fluconazole. The procedure:
as §1

The test system of assay [4] is C. albicans. The arrangement: species or system Candida strains; broth microdilution antifungal susceptibility in YNB buffered at pH 7.0, growth inhibition MIC. The settings on record: Candida albicans, YNB pH 7.0. How it is done: as §1
Assay [5] deals with C. tropicalis. The arrangement: species or system Candida strains; broth microdilution antifungal susceptibility in YNB buffered at pH 7.0, growth inhibition MIC. As to conditions: Candida tropicalis, YNB pH 7.0. The procedure: as §1
The test system of assay [6] is Pichia kudriavzevii C. krusei. The arrangement: species or system Candida strains; broth microdilution antifungal susceptibility in YNB buffered at pH 7.0, growth inhibition MIC. How it is done: as §1

Regarding `OC(Cn1cncn1)(Cn1cncn1)c1ccc(F)cc1F` [Fluconazole], the MIC in assay [1] (DSY227) turned out to be 0.5 µg/mL (≈ 1.63 µM); in assay [1] (DSY288) it was 1 µg/mL (≈ 3.27 µM); in assay [1] (DSY297), 2 µg/mL (≈ 6.53 µM); in assay [1] (DSY299), 0.25 µg/mL (≈ 0.816 µM); in assay [2] (DSY381), 0.5 µg/mL (≈ 1.63 µM); in assay [2] (DSY2274) it was 2 µg/mL (≈ 6.53 µM). For the same compound, the MIC came out at 16 µg/mL (≈ 52.2 µM) in assay [2] (DSY2336); 8 µg/mL (≈ 26.1 µM) in assay [2] (DSY2374); 128 µg/mL (≈ 418 µM) in assay [2] (DSY2825); 4 µg/mL (≈ 13.1 µM) in assay [2] (DSY2897); 32 µg/mL (≈ 104 µM) in assay [3].
In the case of `C[C@H]1CC[C@]2(NC1)O[C@H]1C[C@H]3[C@@H]4CC[C@H]5C[C@@H](O)CC[C@]5(C)[C@H]4CC[C@]3(C)[C@H]1[C@@H]2C` [compound 22, Tomatidine], the MIC in assay [4] (DSY227) was found to be 0.625 µM (≈ 0.26 µg/mL); in assay [4] (DSY281), 0.312 µM (≈ 0.13 µg/mL); in assay [4] (DSY290), 2.5 µM (≈ 1.04 µg/mL); in assay [5] (DSY381) it was 0.312 µM (≈ 0.13 µg/mL); in assay [5] (DSY826) it was 0.15 µM (≈ 0.0623 µg/mL); in assay [5] (DSY2274), 2.5 µM (≈ 1.04 µg/mL). Further, the MIC was 1.25 µM (≈ 0.52 µg/mL) in assay [5] (DSY2310); 5 µM (≈ 2.08 µg/mL) in assay [5] (DSY2825); 0.625 µM (≈ 0.26 µg/mL) in assay [6] (DSY2293, YNB pH 7.0); > 40 µM in assay [6] (DSY2294, YNB pH 7.0); 1.25 µM (≈ 0.52 µg/mL) in assay [6] (DSY2302, YNB pH 7.0).
